Experimental data taken from patent US8785488B2 (Exelixis Patent Company LLC, priority 2009, dated 2014).
pEC50: −log10 of the molar value.

Target: T1, human TGR5 (h-TGR5) (Homo sapiens, UniProt Q8TDU6)
T1 construct: expressed in transfected cells
T1 sequence (Q8TDU6 1-330): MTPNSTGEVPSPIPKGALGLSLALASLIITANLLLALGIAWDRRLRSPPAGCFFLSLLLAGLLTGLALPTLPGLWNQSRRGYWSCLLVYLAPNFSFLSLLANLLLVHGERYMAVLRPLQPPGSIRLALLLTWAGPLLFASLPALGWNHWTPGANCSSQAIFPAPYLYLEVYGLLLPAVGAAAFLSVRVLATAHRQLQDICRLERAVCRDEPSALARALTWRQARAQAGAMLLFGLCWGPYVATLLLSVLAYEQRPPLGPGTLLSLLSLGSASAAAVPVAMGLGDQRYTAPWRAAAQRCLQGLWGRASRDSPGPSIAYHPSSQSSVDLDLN
Assay: TGR5/CRE-Luciferiase Assay (HEK 293 hTGR5/CRE-Luc cells)
Type: cell-based
Settings: h-TGR5 CRE-Luc EC50, Table 1; read-out: CRE-Luc (EC50)
Outline: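 HEK293 cells stably carrying hTGR5 and a CRE-luciferase reporter were exposed to serially diluted compounds (diluted in DMEM with 5% DMSO) for 6 h. Cells were then lysed in luciferase buffer, luminescence was read, and EC50 values were derived from dose-response curves.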

SMILES | pEC50
COc1cc(-n2c(C(C)(C)c3ccc(Cl)c(OC)c3)cnc2SCc2ccc(S(N)(=O)=O)cc2Cl)ccc1F [3-chloro-4-{[(5-{1-[4-chloro-3-(methyloxy)phenyl]-1-methylethyl}-1-[4-fluoro-3-(methyloxy)phenyl]-1H-imidazol-2-yl)thio]methyl}benzenesulfonamide] | > 7.00
CC(C)(c1ccc(F)c(F)c1)c1cnc(SCC2CCN(CC(O)CO)CC2)n1-c1ccc(F)cc1 (stereo not drawn) [3-{4-[({5-[1-(3,4-difluorophenyl)-1-methylethyl]-1-(4-fluorophenyl)-1H-imidazol-2-yl}thio)methyl]piperidin-1-yl}propane-1,2-diol] | 5.00 to 6.00
CC(C)(c1ccc(Cl)c(Cl)c1)c1cnc(C(F)CC2CCN(S(C)(=O)=O)CC2)n1-c1ccc(F)cc1 (stereo not drawn) [4-(2-{5-[1-(3,4-dichlorophenyl)-1-methylethyl]-1-(4-fluorophenyl)-1H-imidazol-2-yl}-2-fluoroethyl)-1-(methylsulfonyl)piperidine] | 5.00 to 6.00
CC(C)(c1ccc(S(C)(=O)=O)cc1)c1cnc(SCc2c(F)cc(C(=O)O)cc2F)n1-c1ccc(F)c(F)c1 [4-({[1-(3,4-difluorophenyl)-5-{1-methyl-1-[4-(methylsulfonyl)phenyl]ethyl}-1H-imidazol-2-yl]thio}methyl)-3,5-difluorobenzoic acid] | 5.00 to 6.00
COc1c(Cl)cc(C(C)(C)c2cnc(SCc3ccc(S(N)(=O)=O)cc3F)n2-c2ccc(F)cc2)cc1Cl [4-({[5-{1-[3,5-dichloro-4-(methyloxy)phenyl]-1-methylethyl}-1-(4-fluorophenyl)-1H-imidazol-2-yl]thio}methyl)-3-fluorobenzenesulfonamide] | > 7.00
CC(C)(c1ccc(Cl)c(S(N)(=O)=O)c1)c1cnc(SCc2c(F)cc(C(=O)O)cc2F)n1-c1ccc(F)cc1 [4-({[5-{1-[3-(aminosulfonyl)-4-chlorophenyl]-1-methylethyl}-1-(4-fluorophenyl)-1H-imidazol-2-yl]thio}methyl)-3,5-difluorobenzoic acid] | 5.00 to 6.00
COc1ccc(C(C)(C)c2cnc(SCc3ccc(C(=O)O)cc3F)n2-c2ccc(F)cc2)cc1Cl [4-({[5-{1-[3-chloro-4-(methyloxy)phenyl]-1-methylethyl}-1-(4-fluorophenyl)-1H-imidazol-2-yl]thio}methyl)-3-fluorobenzoic acid] | 6.00 to 7.00
CC(C)(c1ccc(Cl)c(Cl)c1)c1cnc(SCc2ccc(F)cc2Cl)n1-c1ccc(N2CCOCC2)cc1 [4-[4-(2-{[(2-chloro-4-fluorophenyl)methyl]thio}-5-[1-(3,4-dichlorophenyl)-1-methylethyl]-1H-imidazol-1-yl)phenyl]morpholine] | 5.00 to 6.00
CC(C)(c1ccc(Cl)c(Cl)c1)c1cnc(SCC2CCN(c3nnn[nH]3)CC2)n1-c1ccc(F)c(F)c1 [4-[({5-[1-(3,4-dichlorophenyl)-1-methylethyl]-1-(3,4-difluorophenyl)-1H-imidazol-2-yl}thio)methyl]-1-(1H-tetrazol-5-yl)piperidine] | > 7.00
CC(C)(c1ccc(Cl)c(Cl)c1)c1cnc(SCC2CCN(S(C)(=O)=O)CC2)n1-c1ccc(F)c(F)c1 [4-[({5-[1-(3,4-dichlorophenyl)-1-methylethyl]-1-(3,4-difluorophenyl)-1H-imidazol-2-yl}thio)methyl]-1-(methylsulfonyl)piperidine] | > 7.00
CC(C)(c1ccc(Cl)c(Cl)c1)c1cnc(COc2ccnc3ccccc23)n1-c1ccc(F)cc1 [4-[({5-[1-(3,4-dichlorophenyl)-1-methylethyl]-1-(4-fluorophenyl)-1H-imidazol-2-yl}methyl)oxy]quinoline] | 5.00 to 6.00
CC(C)(c1ccc(Cl)c(Cl)c1)c1cnc(OCC2CCN(c3nnn[nH]3)CC2)n1-c1ccc(F)cc1 [4-[({5-[1-(3,4-dichlorophenyl)-1-methylethyl]-1-(4-fluorophenyl)-1H-imidazol-2-yl}oxy)methyl]-1-(1H-tetrazol-5-yl)piperidine] | 5.00 to 6.00
CC(C)(c1ccc(Cl)c(Cl)c1)c1cnc(SCC2CCN(c3ccc(F)cc3)CC2)n1-c1ccc(F)cc1 [4-[({5-[1-(3,4-dichlorophenyl)-1-methylethyl]-1-(4-fluorophenyl)-1H-imidazol-2-yl}thio)methyl]-1-(4-fluorophenyl)piperidine] | 5.00 to 6.00
CC(C)(c1ccc(Cl)c(Cl)c1)c1cnc(SCc2ccc(C(N)=O)c(F)c2)n1-c1ccc(F)cc1 [4-[({5-[1-(3,4-dichlorophenyl)-1-methylethyl]-1-(4-fluorophenyl)-1H-imidazol-2-yl}thio)methyl]-2-fluorobenzamide] | 6.00 to 7.00
CC(C)(c1ccc(Cl)c(Cl)c1)c1cnc(SCc2ccc(C(=O)O)c(F)c2)n1-c1ccc(F)cc1 [4-[({5-[1-(3,4-dichlorophenyl)-1-methylethyl]-1-(4-fluorophenyl)-1H-imidazol-2-yl}thio)methyl]-2-fluorobenzoic acid] | 6.00 to 7.00

Results, then the compound that gave them:

pEC50 | SMILES
> 7.00 | CC(C)(c1ccc(Cl)c(Cl)c1)c1cnc(SCc2c(F)cc(C#N)cc2F)n1-c1ccc(F)cc1 [4-[({5-[1-(3,4-dichlorophenyl)-1-methylethyl]-1-(4-fluorophenyl)-1H-imidazol-2-yl}thio)methyl]-3,5-difluorobenzonitrile]
6.00 to 7.00 | CC(C)(c1ccc(Cl)c(Cl)c1)c1cnc(SCc2ccc(C(=O)NCC(F)(F)F)cc2F)n1-c1ccc(F)cc1 [4-[({5-[1-(3,4-dichlorophenyl)-1-methylethyl]-1-(4-fluorophenyl)-1H-imidazol-2-yl}thio)methyl]-3-fluoro-N-(2,2,2-trifluoroethyl)benzamide]
6.00 to 7.00 | CC(C)(c1ccc(Cl)c(Cl)c1)c1cnc(SCc2ccc(C(=O)NCCN3CCOCC3)cc2F)n1-c1ccc(F)cc1 [4-[({5-[1-(3,4-dichlorophenyl)-1-methylethyl]-1-(4-fluorophenyl)-1H-imidazol-2-yl}thio)methyl]-3-fluoro-N-(2-morpholin-4-ylethyl)benzamide]
6.00 to 7.00 | COCCNC(=O)c1ccc(CSc2ncc(C(C)(C)c3ccc(Cl)c(Cl)c3)n2-c2ccc(F)cc2)c(F)c1 [4-[({5-[1-(3,4-dichlorophenyl)-1-methylethyl]-1-(4-fluorophenyl)-1H-imidazol-2-yl}thio)methyl]-3-fluoro-N-[2-(methyloxy)ethyl]benzamide]
6.00 to 7.00 | CC(C)(c1ccc(Cl)c(Cl)c1)c1cnc(SCc2ccc(C(N)=O)cc2F)n1-c1ccc(F)cc1 [4-[({5-[1-(3,4-dichlorophenyl)-1-methylethyl]-1-(4-fluorophenyl)-1H-imidazol-2-yl}thio)methyl]-3-fluorobenzamide]
5.00 to 6.00 | CC(C)(c1ccc(Cl)c(Cl)c1)c1cnc(SCC2CCNCC2)n1-c1ccc(F)cc1 [4-[({5-[1-(3,4-dichlorophenyl)-1-methylethyl]-1-(4-fluorophenyl)-1H-imidazol-2-yl}thio)methyl]piperidine]
6.00 to 7.00 | CC(C)(c1ccc(Cl)c(Cl)c1)c1cnc(SCc2ccc(S(N)(=O)=O)c(F)c2)n1-c1ccc(F)cc1 [4-[({5-[1-(3,4-dichlorophenyl)-1-methylethyl]-1-(4-fluorophenyl)-1H-imidazol-2-yl}thio)methyl}-2-fluorobenzenesulfonamide]
6.00 to 7.00 | CC(C)(c1ccc(Cl)c(Cl)c1)c1cnc(SCc2c(F)cc(C(=O)O)cc2F)n1-c1ccc(F)c(CO)c1 [4-[({5-[1-(3,4-dichlorophenyl)-1-methylethyl]-1-[4-fluoro-3-(hydroxymethyl)phenyl]-1H-imidazol-2-yl}thio)methyl]-3,5-difluorobenzoic acid]
6.00 to 7.00 | CC(C)NC(=O)N1CCC(CSc2ncc(C(C)(C)c3ccc(F)c(F)c3)n2-c2ccc(F)cc2)CC1 [4-[({5-[1-(3,4-difluorophenyl)-1-methylethyl]-1-(4-fIuorophenyl)-1H-imidazol-2-yl}thio)methyl]-N-(1-methylethyl)piperidine-1-carboxamide]
6.00 to 7.00 | CC(C)(c1ccc(F)c(F)c1)c1cnc(SCc2ccc(C(=O)O)cc2F)n1-c1ccc(F)cc1 [4-[({5-[1-(3,4-difluorophenyl)-1-methylethyl]-1-(4-fluorophenyl)-1H-imidazol-2-yl}thio)methyl]-3-fluorobenzoic acid]
6.00 to 7.00 | CC(C)(c1ccc(Cl)c(O)c1)c1cnc(SCc2c(F)cc(C(=O)O)cc2F)n1-c1ccc(F)cc1 [4-[({5-[1-(4-chloro-3-hydroxyphenyl)-1-methylethyl]-1-(4-fluorophenyl)-1H-imidazol-2-yl}thio)methyl]-3,5-difluorobenzoic acid]
6.00 to 7.00 | CC(C)(c1ccc(Cl)c(Cl)c1)c1c(Cl)nc(SCc2c(F)cccc2Cl)n1-c1ccc(F)cc1 [4-chloro-2-{[(2-chloro-6-fluorophenyl)methyl]thio}-5-[1-(3,4-dichlorophenyl)-1-methylethyl]-1-(4-fluorophenyl)-1H-imidazole]
6.00 to 7.00 | CC(C)(c1ccc(Cl)c(Cl)c1)c1cnc(SCc2cc(C(N)=O)ccc2Cl)n1-c1ccc(F)cc1 [4-chloro-3-[({5-[1-(3,4-dichlorophenyl)-1-methylethyl]-1-(4-fluorophenyl)-1H-imidazol-2-yl}thio)methyl]benzamide]
6.00 to 7.00 | CC(C)(c1ccc(Cl)c(Cl)c1)c1cnc(SCc2cc(S(N)(=O)=O)ccc2Cl)n1-c1ccc(F)cc1 [4-chloro-3-[({5-[1-(3,4-dichlorophenyl)-1-methylethyl]-1-(4-fluorophenyl)-1H-imidazol-2-yl}thio)methyl]benzenesulfonamide]
> 7.00 | CC(C)(c1ccc(Cl)c(Cl)c1)c1cnc(SCc2cc(C#N)ccc2Cl)n1-c1ccc(F)cc1 [4-chloro-3-[({5-[1-(3,4-dichlorophenyl)-1-methylethyl]-1-(4-fluorophenyl)-1H-imidazol-2-yl}thio)methyl]benzonitrile]
